pKi: −log10 of the molar value.
What was measured:
plasmin = molecular target: T1, plasmin (Homo sapiens, UniProt P00747); experiment: Plasmin inhibition constant (Ki), fluorogenic substrate assay; type: biochemical; conditions: substrate D-Ala-Leu-Lys-AMC
T1 construct: purchased Sigma
Description: (§1) The activity and selectivity of the present invention can be identified by determination of the inhibition constant (Ki) for serine proteases such thrombin and trypsin and fibrinolytic enzymes such as urokinase, plasmin and tissue plasminogen activator (tPA). All of enzymes are purchased from Sigma. The general assay conditions are as follows. The fluorogenic substrates are dissolved in DMSO and diluted using assay buffer containing 50 mM Tris.HCl (pH 7.8 at 25° C.), 0.1 M NaCl and 0.1% polyethylene glycol 8000 (PEG 8000). […] The assays were conducted using Hitachi F2500 spectrophotometer under ambient temperature and at the excitation and emission wavelengths of 383 nm and 455 nm, respectively. The typical progressive data of the enzymatic assays are shown in FIGS. 1-3, and the determination of inhibition constant (Ki) is shown in FIG. 4.

[1] = molecular target: T2, tissue plasminogen activator (tPA) (Homo sapiens, UniProt P00750); experiment: tPA inhibition constant (Ki), fluorogenic substrate assay; type: biochemical; conditions: substrate Boc-L-(p-F) FPR-ANSNH-C2H5
T2 construct: purchased Sigma
T2 sequence (P00750 36-562, species assumed): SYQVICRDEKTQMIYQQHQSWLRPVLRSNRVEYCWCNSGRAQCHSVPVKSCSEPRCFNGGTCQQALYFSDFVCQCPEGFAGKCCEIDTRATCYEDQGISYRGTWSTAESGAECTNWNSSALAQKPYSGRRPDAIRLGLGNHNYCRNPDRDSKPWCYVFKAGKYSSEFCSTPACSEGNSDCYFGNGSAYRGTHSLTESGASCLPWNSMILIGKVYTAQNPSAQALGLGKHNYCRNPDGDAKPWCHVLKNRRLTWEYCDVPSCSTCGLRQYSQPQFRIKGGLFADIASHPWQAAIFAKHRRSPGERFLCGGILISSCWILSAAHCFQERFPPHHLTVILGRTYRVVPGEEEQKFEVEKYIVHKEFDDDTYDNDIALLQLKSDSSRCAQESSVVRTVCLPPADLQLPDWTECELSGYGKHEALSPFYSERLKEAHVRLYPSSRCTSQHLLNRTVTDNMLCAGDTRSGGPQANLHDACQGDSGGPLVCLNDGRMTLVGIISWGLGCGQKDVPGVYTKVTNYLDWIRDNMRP
Description: as §1

ICR mice = experiment: Clotting time (CT) of mice whole blood after administration; type: in vivo
Description: Blood samples were collected using the capillary method 0.5 h and 1.5 h after i.v. injections and 1 h and 3 h after i.g. and clotting time of whole blood was measured.

SD rats [2] = experiment: RT, TT, PT, APTT and FIB in rat plasma after administration; type: in vivo; set-up: FIB (Fibrillation) / RT (Clot Retraction Time) / TT (Thrombin Time): unit not given here; conditions: 2.5 mg/kg i.v.
Description: Blood was taken at 0.5 h and 1.5 h after i.v. injection and at 1 h and 3 h after i.g. and plasma RT,TT,PT,APTT and FIB were determined.

urokinase = molecular target: T3, urokinase (Homo sapiens, UniProt P00749); experiment: Urokinase inhibition constant (Ki), fluorogenic substrate assay; type: biochemical; conditions: substrate N-Cbz-Gly-Gly-Arg-AMC
T3 construct: purchased Sigma
Description: as §1

SD rats [3] = experiment: Acute myocardial infarction by coronary artery ligation in rats; type: in vivo, rat; conditions: for S point in electrocardiogram / T wave in electrocardiogram: reference drug 0.125 mg/kg i.v.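 As to CK (u/ml): blood collected at end of 6 h (i.v.) or 8 h (intraduodenal) ECG observation.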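 As to LDH (u/ml): blood collected at end of 6 h (i.v.) or 8 h (intraduodenal) ECG observation.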
Description: The drugs were administered 8 to 10 min after the coronary artery was ligated.

SD rats [4] = experiment: Weight of deep vein thrombosis (inferior vena cava thrombi) in rats; type: in vivo, rat; conditions: 1.25 mg/kg i.v., 4 hours
Description: The drug was administered immediately after operation and, 4 hours later, the thrombi were collected and weighted.

thrombin = molecular target: T4, thrombin (Homo sapiens, UniProt P00734); experiment: Thrombin inhibition constant (Ki), fluorogenic substrate assay; type: biochemical; conditions: Table II, method of example 9
T4 construct: purchased Sigma

[5] = 0 min after ligation (before drug)
[6] = serum, reference drug, 0.125 mg/kg i.v.

T1 sequence (P00747 581-810 limits assumed, species assumed): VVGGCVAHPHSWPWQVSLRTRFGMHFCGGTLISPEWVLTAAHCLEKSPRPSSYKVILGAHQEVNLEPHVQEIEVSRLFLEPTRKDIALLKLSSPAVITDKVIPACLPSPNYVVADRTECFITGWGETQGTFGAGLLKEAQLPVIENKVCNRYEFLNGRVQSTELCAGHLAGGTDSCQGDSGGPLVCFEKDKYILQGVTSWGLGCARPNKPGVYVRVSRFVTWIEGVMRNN
T1 sequence (P00747 97-580 partner limits assumed, species assumed): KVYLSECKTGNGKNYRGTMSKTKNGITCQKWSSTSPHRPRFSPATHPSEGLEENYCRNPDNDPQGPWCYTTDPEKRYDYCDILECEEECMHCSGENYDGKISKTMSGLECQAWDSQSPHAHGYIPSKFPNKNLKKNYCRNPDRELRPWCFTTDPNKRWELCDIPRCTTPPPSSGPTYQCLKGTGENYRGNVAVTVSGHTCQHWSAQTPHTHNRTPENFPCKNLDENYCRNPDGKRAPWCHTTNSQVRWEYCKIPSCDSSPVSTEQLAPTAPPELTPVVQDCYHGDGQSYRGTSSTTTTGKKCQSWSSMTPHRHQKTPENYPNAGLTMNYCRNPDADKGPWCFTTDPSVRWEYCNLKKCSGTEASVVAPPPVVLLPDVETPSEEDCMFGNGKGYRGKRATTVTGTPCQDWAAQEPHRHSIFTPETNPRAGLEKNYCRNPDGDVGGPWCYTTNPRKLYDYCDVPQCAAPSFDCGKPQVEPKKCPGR

CC1CNc2c(cccc2S(=O)(=O)N[C@@H](CCCNC(=N)N)C(=O)N2CC[C@@H](C)C[C@@H]2C(=O)O)C1 (stereo partly shown) [Argatroban, reference compound]
pKi (plasmin): 3.43 | pKi [1]: 3.11 | CT (clotting time of whole blood) (ICR mice; 2.5 mg/kg i.v. group, before administration): 133.28 ± 26.21 | CT (clotting time of whole blood) (ICR mice; 2.5 mg/kg i.v., 0.5 h): 170.33 ± 28.34 | CT (clotting time of whole blood) (ICR mice; 2.5 mg/kg i.v., 1.5 h): 156.11 ± 32.08 | APTT (Activated Partial Prothromboplastin Time) (SD rats [2]; 0.5 h): 37.9 ± 10.2 | PT (Prothrombin Time) (SD rats [2]; 0.5 h): 37.9 ± 8.6 | RT (Clot Retraction Time) (SD rats [2]; 0.5 h): 91.2 ± 15.0 | TT (Thrombin Time) (SD rats [2]; 0.5 h): 72.9 ± 20.1 | APTT (Activated Partial Prothromboplastin Time) (SD rats [2]; 1.5 h): 30.1 ± 6.5 | FIB (Fibrillation) (SD rats [2]; 1.5 h): 4.0 ± 0.9 | PT (Prothrombin Time) (SD rats [2]; 1.5 h): 29.5 ± 8.5 | RT (Clot Retraction Time) (SD rats [2]; 1.5 h): 77.4 ± 10.6 | TT (Thrombin Time) (SD rats [2]; 1.5 h): 50.4 ± 12.3 | pKi (urokinase): 3.00 | S point in electrocardiogram (SD rats [3]; [5]): 0.35 ± 0.16 | T wave in electrocardiogram (SD rats [3]; [5]): 0.23 ± 0.16 | S point in electrocardiogram (SD rats [3]; 10 min after ligation): 0.36 ± 0.20 | T wave in electrocardiogram (SD rats [3]; 10 min after ligation): 0.21 ± 0.18 | S point in electrocardiogram (SD rats [3]; 30 min after ligation): 0.26 ± 0.15 | T wave in electrocardiogram (SD rats [3]; 30 min after ligation): 0.16 ± 0.18 | S point in electrocardiogram (SD rats [3]; 6 h after ligation): 0.19 ± 0.10 | T wave in electrocardiogram (SD rats [3]; 6 h after ligation): 0.11 ± 0.10 | Infarction Area (%) (SD rats [3]; reference drug, 0.125 mg/kg i.v.): 23.55 ± 7.95 % | CK (u/ml) (SD rats [3]; [6]): 55.92 ± 11.46 u/ml | LDH (u/ml) (SD rats [3]; [6]): 6259.5 ± 308.6 u/ml | Thrombi (mg) Dry weight (SD rats [4]): 6.26 ± 3.72 mg | Thrombi (mg) Wet weight (SD rats [4]): 18.04 ± 8.99 mg

CCC1CCN2C(=O)C(CCCNC(=N)N)N(S(=O)(=O)c3cccc4c3NCC(C)C4)C(=O)C2C1 (stereo not shown) [compound 2]
pKi (thrombin): 7.21

CC1CNc2c(cccc2S(=O)(=O)N2C(=O)C3CC(c4ccccc4)CCN3C(=O)C2CCCNC(=N)N)C1 (stereo not shown) [compound 3]
pKi (thrombin): 6.04

CC1CNc2c(cccc2S(=O)(=O)N2C(=O)C3CC(C(C)(C)C)CCN3C(=O)C2CCCNC(=N)N)C1 (stereo not shown) [compound 4]
pKi (thrombin): 5.80
